# Experimental data reported in patent US8017828B2, “Utilization of rare sugars in plant or microorganism” (Shikoku Research Institute Incorporated, priority 2004, dated 2011).
# Columns and labels:
# [1] = system: Brassica rapa var. amplexicaulis (variety: “Haru Ichiban”); assay: Foliar spraying of sugar on Brassica rapa var. amplexicaulis; format: in vivo; conditions: 0.5% solution sprayed
# Source text: Brassica rapa var. amplexicaulis is a vegetable in the Brassica family, and flower buds are harvested and used. As the same species of vegetables, broccoli, cauliflower and the like are exemplified, which are important horticultural crops. As for such a vegetable, development of flower buds has a large effect on the crop yield. Therefore, during the house cultivation of Brassica rapa var. amplexicaulis (variety: “Haru Ichiban”), foliar spraying of a sugar solution at a concentration of 0.5% (w/v) was carried out and effects on the growth and the development of flower buds were examined. The seeds of Brassica rapa var. amplexicaulis were sown in a 128-cell tray on Oct. 23, 2003 and raised for about 20 days. Then, the raised seedlings were transplanted for permanent planting with a planting distance of 40 cm on two rows with an inter row space of 50 cm in separate beds filled with soil for cultivation “Hana to Yasai no Tsuchi (garden soil for flowers and vegetables)” (Kurokawa Shubyo En) on Nov. 12, 2003. The cultivation was carried out by a simple fertigation system, and irrigation was carried out for 1 hour on a daily basis with a 2,000-fold dilution of Hyponex through an irrigation tube. The cultivation was carried out in a vinyl house without heating with side windows open. From Dec. 18, 2003, water or a 0.5% (w/v) sugar solution was sprayed onto the whole plant on a three times weekly basis. As for the types of sugars, D-glucose, D-fructose and D-psicose were used and five plants were cultivated for each test plot. On Feb. 23, 2004, three plants of medium size were harvested and a survey was carried out. The survey items were plant length, stem diameter, number of lateral buds, terminal bud weight, total weight of lateral buds and the like.
# Salsola komarovii = assay: Seed germination, short-time and continuous treatment (Experiment 2); format: in vivo; conditions: immersed in 1% solution for 24 hours, in the end; DW 28%
# Description: In order to clarify an effect of a short-time treatment, 50 seeds of Salsola komarovii, tomato (Home Momotaro) and sunny lettuce (Red Wave), and 20 seeds of morning glory (Tairin Zaki Kongo) were immersed in any of deionized water, 1% D-psicose, 1% D-allose and 1% L-galactose for 24 hours (25° C., dark), respectively, then, they were lightly washed with deionized water. Then, the seeds were sown in a dish with a diameter of 9 cm having a filter paper placed therein, and germinated under the same condition by poring 5 to 10 ml of deionized water therein. Further, for the comparison, a continuous treatment with 1% D-psicose was carried out in accordance with the same procedure.
# [2] = system: Pythium ultimum IFO 32426 strain; assay: Oospore formation of Pythium ultimum in sugar solution; format: cell-based; conditions: 0.05% (w/v) sugar solution, 23° C., 4 days
# Description: With regard to Pythium ultimum that causes damping-off of spinach and the like, an effect of a rare sugar on oospore formation was examined.
# First, as the Pythium ultimum, IFO 32426 strain was used, and static culture thereof was carried out with 200 ml of V8 medium at 23° C. for 1 week. The resulting mycelial mat was well washed with sterile water and divided into 16 equal parts with forceps. This mycerial body was disentangled uniformly to form a small piece and immersed in 20 ml of a sugar solution at a concentration of 0.05% (w/v) and let stand at 23° C. for 4 days. […] Further, the same experiment was carried out using Pythium zingiberum IFO 30817 strain.
# [3] = system: Aspergillus niger, Cladosporium cladosporioides and Penicillium chrysogenum; assay: Mycelial elongation of filamentous fungi on agar with rare sugar; format: cell-based; conditions: 0.05% (w/v) in agar medium, 25° C., 4 days
# Description: By using as targets, Aspergillus niger, Cladosporium cladosporioides and Penicillium chrysogenum, which are typical filamentous fungi and generally seen in a living environment, an effect of a rare sugar on mycelial elongation was examined.
# As the test fungal strains, NBRC 4066 strain, NBRC 4459 strain and NBRC 4626 strain were used.
# Each test fungal strain was cultured on a potato dextrose agar medium at 25° C. for 7 days, and one in which the mycelium extended over the surface of the dish was pushed out along with the agar medium in such a manner that the agar medium was in a disc form with a diameter of 1.1 cm, which was placed at the center of a dish filled with an agar medium (1% Bacto agar) supplemented with any of a variety of rare sugars (allitol, D-altrose, L-mannose, L-galactose, D-tagatose, D-sorbose, D-psicose, D-allose, D-glucose and D-fructose) at 0.05% (w/v) and cultured at 25° C. for 4 days. After the cultivation, the length of the mycelium extending on the surface of the culture medium was measured. Two culture media were prepared for each test plot, and the mycelial length represents the average thereof.
# [4] = system: cherry tomato plant “mini carol”; assay: Hydroponic growth of cherry tomato with 0.05 or 0.5 mM sugar, 10 days; format: in vivo; conditions: 0.5 mM
# Description: Subsequently, a cherry tomato plant “mini carol” was transplanted for permanent planting to a hydroponic apparatus, and a total of 7 treated plots in which a plot without addition (control plot) was added to 6 treated plots with the use of a nutrient solution supplemented with 0.05 mM or 0.5 mM D-psicose, D-fructose or mannitol were prepared. A survey was carried out with regard to the growth at 10 days after the permanent planting. […] The stem diameter was the smallest in the case of 0.5 mM D-psicose. The number of leaves was the smallest in the case of 0.5 mM D-psicose and 0.5 mM mannitol. The root length was the smallest in the case of 0.5 mM psicose.
# [5] = system: Fusarium oxysporum (IFO 31213 strain); format: in vivo, tomato plant (variety: “House Momotaro”)
# Description: By using a tomato plant and a strain of Fusarium oxysporum, which is a typical pathogenic bacterium of tomato, an effect of D-psicose during infection in a stage of raising seedlings thereof was examined.
# To be more specific, seeds of a tomato plant (variety: “House Momotaro”) were subjected to an immersion treatment by immersing them in a 0.01% (w/v) D-psicose solution or a 0.007% (w/v) probenazole solution for 15 minutes while stirring slowly, followed by air-drying on sterile gauze, and then used as treated seeds. In the medium culture for raising seedlings (pete:pearlite:vermiculite=2:1:1), 0.01% (w/v) D-psicose or 0.007% (w/v) probenazole was mixed, and the soil was placed in black polypot plant containers with a diameter of 9 cm, and then, 4 seeds of the above treated seeds were sown in each pot. The seeds (20 seeds in total) were sown in 5 pots for each test plot. After sowing, the pots were placed in a growth chamber at 23° C. and 5,000 Lux (12-hour day length), and raising of seedlings was initiated. At 1 month and 2 months after the initiation of raising of seedlings, a suspension of mycelium of Fusarium oxysporum (IFO 31213 strain) was inoculated around the roots, whereby infection with Fusarium oxysporum was caused. After the inoculation of Fusarium oxysporum, the temperature was raised to 30° C., and cultivation was continued. At about 4 months after sowing, a survey was carried out with regard to the survival rate of plants, the conditions of browning of vascular bundles and roots, the stem diameter and the like.
# [6] = system: Arabidopsis thaliana Lan dsberg erecta (LER); assay: Germination of Arabidopsis thaliana with 8 ketoses; format: in vivo; conditions: 100 mM aqueous solution
# Description: An effect of 8 types of ketoses on germination of Arabidopsis thaliana LER series which was an experimental plant was examined.
# Two sheets of filter paper were placed in a dish with a diameter of 3.5 cm, and 30 seeds of Arabidopsis thaliana Lan dsberg erecta (LER) were sown per dish, and 0.5 mL of a treatment liquid was poured therein. Then, the dishes were placed in an environment control chamber under the condition of a constant temperature of 25° C. and 24-hour day length (fluorescent lamp, 70 μmol/m^2/s). After the sowing, a survey was carried out with regard to the number of seeds that germinated at 24-hour interval. As the treatment liquid, 100 mM, 10 mM and 1 mM aqueous solutions of any of D-fructose, D-psicose, D-tagatose, D-sorbose, L-fructose, L-psicose, L-tagatose and L-sorbose, and distilled water were used. The procedure was repeated three times for the respective treatment liquids.
# chitinase gene = assay: Northern blotting of chitinase gene expression in sprayed cut leaves of rough lemon; format: in vivo; conditions: 0.5 mM sprayed on cut leaves, 2 to 48 hours
# Description: Cut leaves of rough lemon were treated by spraying each of 0.5 mM L-psicose, L- & D-tagatose and D-sorbose thereon and were let stand for 2, 4, 6, 12, 24 and 48 hours at 24° C. under the dark condition in a moist chamber. Then, from the treated leaves, total RNA was extracted and the expression of genes of lipoxygenase and chitinase was analyzed by Northern blotting. The assays and analyses were repeated at least 3 times in all the treated plots, and equivalent results were obtained.
# [7] = system: Fusarium oxysporum, Glomerella cingulata, Verticillium dahliae and Botrytlis cinerea; assay: Mycelial elongation of plant pathogenic bacteria on agar with rare sugar; format: cell-based; conditions: 0.05% (w/v) in agar medium, 23° C., 7 days
# Description: By using as targets, Fusarium oxysporum, Glomerella cingulata, Verticillium dahliae and Botrytlis cinerea, which are typical plant pathogenic bacteria, an effect of a rare sugar on mycelial elongation was examined.
# As the test bacterial strains, IFO 31213 strain, IFO 6425 strain, IFO 9765 strain and IFO 9760 strain were used.
# After the cultivation, the length of the extending mycelium was measured.
smiles,measurement,setting,value
O=C[C@@H](O)[C@H](O)[C@H](O)[C@@H](O)CO [L-galactose],Terminal bud weight,[1]; control (water) 3.0,9.6 g
same,Stem diameter,[1]; control (water) 22.8,21.7 mm
same,Number of lateral buds,[1]; control (water) 32.3,48.3
same,Plant length,[1]; control (water) 49.3,52.7 cm
same,Total weight of lateral buds,[1]; control (water) 235.3,250.6 g
same,germination rate,Salsola komarovii,34%
same,oospore formation,[2],inhibited
same,effect on mycelial elongation,[3],have an effect of inhibiting mycelial elongation
"OC[C@@H](O)[C@@H](O)[C@H](O)[C@H](O)CO [mannitol, reference compound]","number of leaves, rank among 7 treated plots",[4],the smallest
"C=CCOC1=NS(=O)(=O)c2ccccc21 [probenazole, reference compound]",Vascular bundle browning ratio,"[5]; seed immersion (0.01% D-psicose or 0.007% probenazole), no seed treatment 25%",5%
same,Stem diameter,[5]; seed immersion treatment,increased
O=C(CO)[C@@H](O)[C@@H](O)[C@@H](O)CO [L-psicose],inhibition of germination,[6],not clearly observed
O=C(CO)[C@@H](O)[C@@H](O)[C@H](O)CO [D-tagatose],induction of the expression of chitinase gene,chitinase gene,more strongly than D-psicose
O=C[C@@H](O)[C@H](O)[C@H](O)[C@H](O)CO [D-altrose],inhibitory effect on mycelial elongation,[7],the highest inhibitory effect
same,effect on mycelial elongation,[3],have an effect of inhibiting mycelial elongation
